Experiment: in vitro
Conditions: human, hela cells, % viability

SMILES | viability at 28.5 h, 10 µM [%]
O=C1N/C(=N/N=C/c2ccc(O)cc2)SC1Cc1ccccc1[N+](=O)[O-] (stereo not drawn) [CBK261684] | 91.9
O=C(O)C1CCCCN1Cc1ccccc1 (stereo not drawn) [CBK261687] | 94.9
O=C(N/N=C/c1cc(Br)c(Br)o1)c1cccc(F)c1 [CBK261688] | 94.2
Cc1c(C(c2ccc(C(=O)O)cc2)c2c(C)n(C)n(-c3ccccc3)c2=O)c(=O)n(-c2ccccc2)n1C [CBK261691] | 102
Cc1c(C(c2ccc3ccccc3c2)c2c(C)n(C)n(-c3ccccc3)c2=O)c(=O)n(-c2ccccc2)n1C [CBK261692] | 95.9
O=C(COc1ccc(Cl)cc1)NNC(=O)Cc1cccc2ccccc12 [CBK261693] | 91.4
COc1ccc(C(=O)NNC(=O)/C=C/c2ccc(C(C)C)cc2)cc1 [CBK261697] | 101
COc1ccccc1CNS(=O)(=O)c1ccccc1[N+](=O)[O-] [CBK261699] | 102
CC(C)(C)c1ccc(C(=O)NNC(=O)C(=O)Nc2ccccc2)cc1 [CBK261701] | 83.1
O=C(O)c1c(Br)c(Br)c(Br)c(Br)c1C(=O)NCCc1ccccc1 [CBK261702] | 90.7
COc1ccc(C(=O)NNC(=O)c2cccc(Cl)c2)cc1OC [CBK261704] | 91.4
O=C(O)C1CCCCC1C(=O)NCCc1ccccc1 (stereo not drawn) [CBK261707] | 94
O=C(O)CCCC(=O)NCc1cccnc1 [CBK261708] | 106
O=C(NNc1ccc([N+](=O)[O-])cc1)c1cccs1 [CBK261709] | 92.1
Brc1ccc(-c2nc(NCCCN3CCOCC3)cc(-c3ccccc3)n2)cc1 [CBK261712] | 90.1
Oc1cc(-c2ccccc2)nc(NNc2ccccc2)n1 [CBK261716] | 96.6
O=C1CC(c2ccccc2)=NN1c1nc(-c2ccccc2)cc(-c2ccc(F)cc2)n1 [CBK261717] | 92.4
Cc1ccc(O)c(NC(=O)Cn2nc([N+](=O)[O-])c(Br)c2C)c1 [CBK261718] | 92.2
Cc1c(Cl)c([N+](=O)[O-])nn1CC(=O)N1CCN(C)CC1 [CBK261719] | 89.4
CC1CCCCN1S(=O)(=O)c1cccc2nonc12 (stereo not drawn) [CBK261723] | 94.5
CCOc1ccc(C(=O)NCCC(=O)O)cc1 [CBK261725D] | 92.2
O=S(=O)(c1ccc(Oc2ccc(S(=O)(=O)N3CCCCCC3)cc2)cc1)N1CCCCCC1 [CBK261729] | 99

SMILES | viability at 28.5 h, 10 µM [%]
COc1cc(CN2CCCCC2CO)c([N+](=O)[O-])cc1OC (stereo not drawn) [CBK261730] | 85.1
COc1cc(CN(C)CCc2ccccn2)c([N+](=O)[O-])cc1OC [CBK261737G] | 88.3
Cc1cc(I)ccc1NCC(=O)NN [CBK261738] | 91.1
O=C(NCCCn1ccnc1)c1cccs1 [CBK261740] | 90.2
COc1ccccc1CN(C)CCc1ccccn1 [CBK261741G] | 87.2
COc1ccc(C(=O)O)cc1S(=O)(=O)N1CCCCCC1 [CBK261742] | 99.2
CN(C1CCCCC1)S(=O)(=O)c1cc(Cl)ccc1Cl [CBK261744] | 118
COc1ccc(NC(=O)CSc2nc(O)cc(=O)[nH]2)cc1 [CBK261747] | 88.8
CC(=O)c1ccc(N2CCN(Cc3cc(C(C)(C)C)c(O)c(C(C)(C)C)c3)CC2)cc1 [CBK261749] | 87.2
[O-][S+](CC(O)COc1ccc(Cl)cc1)c1ccccn1 (stereo not drawn) [CBK261750] | 99.9
O=[N+]([O-])c1ccccc1S(=O)(=O)NCc1ccccn1 [CBK261751] | 92.6
O=[N+]([O-])c1ccc(/C=N/C23CN4CN(CN(C4)C2)C3)s1 [CBK261752] | 105
O=C(c1ccc(-c2ccccc2)cc1)c1no[n+]([O-])c1C(=O)c1ccc(-c2ccccc2)cc1 [CBK261754] | 106
CC(=O)Nc1c(Nc2ccccc2)c2ccccc2oc1=O [CBK261756] | 88.1
O=S(=O)(NCCN1CCOCC1)c1cc(Cl)ccc1Cl [CBK261757] | 85.1
CC(C)OCC(O)C[S+]([O-])Cc1ccccc1 (stereo not drawn) [CBK261761] | 93.4
NNC(=O)c1cc(-c2ccccc2)nc2ccc(Br)cc12 [CBK261762] | 102
Cc1cc(C)nc(SCCN2CCOCC2)n1 [CBK261769C] | 93.8
Cc1cc(/C=N/O)c(C)c(COCc2cc(C)cc(/C=N/O)c2C)c1 [CBK261770] | 91.2
COc1ccc(Oc2cc(Cl)nc(N)n2)cc1 [CBK261771] | 101
CC(C)(C)c1ccc(OCC(O)CSc2nnc[nH]2)cc1 (stereo not drawn) [CBK261776] | 103
c1ccc(Oc2cccc(OCCCN3CCCCC3)c2)cc1 [CBK261781] | 95.2

SMILES | viability at 28.5 h, 10 µM [%]
Brc1ccc(OCCCCCCN2CCCCC2)cc1 [CBK261784] | 97
O=C(O)/C=C/C(=O)NNC(=O)c1ccccc1Br [CBK261786] | 111
CC1=NN(c2ccc([N+](=O)[O-])cc2)C(=O)/C1=C\NCCN1CCN(C(=O)c2ccc(Br)cc2)CC1 [CBK261788] | 110
O=C(O)CC(C(=O)O)N1C(=O)/C(=C2/C(=O)Nc3ccc(Br)cc32)SC1=S (stereo not drawn) [CBK261791] | 104
CC(=O)Oc1cccc(NC(=O)CC2Sc3ccccc3NC2=O)c1 (stereo not drawn) [CBK261792] | 92
O=C(/C=C/c1ccccc1Cl)NCCc1ccccc1 [CBK261794] | 97.5
NNc1nc(-c2ccccc2)cc(-c2ccc(Br)cc2)n1 [CBK261795] | 107
O=[N+]([O-])c1ccc(S(=O)(=O)NCCc2nc3ccccc3[nH]2)cc1 [CBK261796] | 112
COc1ccc(-c2csc(Nc3ccc(S(=O)(=O)Nc4cc(C)on4)cc3)n2)cc1OC [CBK261797B] | 95.3
COc1ccc(/C=N\N(C)c2nc(-c3ccccc3)cc(-c3ccc(Br)cc3)n2)cc1OC [CBK261799] | 104
O=C(NCCc1nc2ccccc2[nH]1)Nc1ccccc1 [CBK261803] | 103
O=C(/C=C/c1ccccc1)NC(NCc1cccnc1)C(Cl)(Cl)Cl (stereo not drawn) [CBK261804] | 95.3
COc1cccc(OCCCCCc2c(C)n[nH]c2C)c1 [CBK261805] | 104
c1ccc2[nH]c(CCc3nc4ccccc4[nH]3)nc2c1 [CBK261807] | 111
Cc1cc(SCC(C)C)n2ncnc2n1 [CBK261808] | 112
O=C(O)C/N=C1/CCCc2ccccc2N1 [CBK261809] | 90.7
CC(=O)N(Cc1ccccc1)C1CCCc2c1[nH]c1ccc(C)cc21 (stereo not drawn) [CBK261810] | 98
O=C(O)c1ccc(-c2ccc(/C=c3\sc4nc5ccccc5n4c3=O)o2)cc1 [CBK261817] | 99.3
O=C1NC(=S)N/C1=C/c1cc2c(cc1Cl)OCO2 [CBK261818] | 91.5
O=C1CSC(=O)N1CNc1ccc(Br)cc1 [CBK261819] | 90.2
C=CCc1ccc(OCC(=O)NN)c(OC)c1 [CBK261831] | 97.5
CCOC1C(OCC)N(S(=O)(=O)c2ccc(C)cc2)CCN1S(=O)(=O)c1ccc(C)cc1 (stereo not drawn) [CBK261832] | 116

SMILES | viability at 28.5 h, 10 µM [%]
CC(C)(CO)NC(=O)COc1ccc(Cl)cc1 [CBK261833] | 103
CC(NS(=O)(=O)c1ccc([N+](=O)[O-])cc1)C(=O)O (stereo not drawn) [CBK261834] | 90.5
O=[N+]([O-])c1cc(C(F)(F)F)ccc1NC(CO)(CO)CO [CBK261838] | 88.4
Cc1nonc1NC(=O)CN1CCCCC1 [CBK261839] | 110
Cc1nonc1NC(=O)CN1CCCC1 [CBK261840] | 109
COc1cc(/C=N/c2ccc(/N=C/c3cc(Br)c(O)c(OC)c3)cc2)cc(Br)c1O [CBK261843] | 82.7
O=C(O)/C(O)=C/C(=O)c1ccc(F)cc1 [CBK261844] | 89.4
COc1ccc(O)c(CN(C)CCN(C)C)c1 [CBK261854] | 89.4
COc1ccc(CCN(C)Cc2ccncc2)cc1OC [CBK261861] | 98.4
O=[N+]([O-])c1ccccc1/C=C/CN1CCN(C/C=C/c2ccccc2)CC1 [CBK261864] | 93
CN(C)CCN(Cc1ccccc1)Cc1c(F)cccc1Cl [CBK261867] | 112
CCOC(=O)N1CCN(Cc2ccc(O)c(OC)c2)CC1 [CBK261873] | 98.5
CC(CCN1CCN(CCO)CC1)c1ccccc1 (stereo not drawn) [CBK261876] | 102
c1ccc(CCCN2CCN(Cc3ccccc3)CC2)cc1 [CBK261878] | 90.1
CC(CCN1CCN(C)CC1)c1ccccc1 (stereo not drawn) [CBK261881] | 88.5
COc1cc(CN2CCN(C/C=C/c3ccccc3)CC2)cc(I)c1O [CBK261882] | 91.7
COc1ccc(CN2CCN(C)CC2)cc1OCc1ccccc1 [CBK261886] | 88.2
COc1ccccc1/C=C/CN(C)CCN(C)C [CBK261888] | 88.5
CN(C/C=C/c1ccccc1[N+](=O)[O-])CCc1ccccn1 [CBK261890] | 92.5
Cl/C(=C\c1ccccc1)CN1CCOCC1 [CBK261892] | 114
COc1ccc(CN2CCN(c3ccc(F)cc3)CC2)cc1OCc1ccccc1 [CBK261894] | 95
CC(O)CN(CC(C)O)CC1CC2C=CC1C2 (stereo not drawn) [CBK261896] | 90.4

Same assay, conditions: human, hela cells, % viability, bulk resorufin, single well

SMILES | viability at 28.5 h, 10 µM [%]
O=C(NN=C1CCCCC1)C(O)(c1ccccc1)c1ccccc1 [CBK261783] | 91.1
Cc1ccc(OP(=O)(NCCN2CCOCC2)Oc2ccc(C)cc2)cc1 [CBK261802] | 107
CN(C)CCCN/C=C1/C(=O)NC(=S)N(c2ccc(Cl)cc2)C1=O [CBK261828] | 91.6
Cc1ccccc1N1C(=O)NC(=O)/C(=C/NCCCn2ccnc2)C1=O [CBK261829] | 107
CCN(CC)CCN(C)Cc1ccc2ccc3cccc4ccc1c2c34 [CBK261859] | 103
